SMILES strings stand for the structures. Where two headings read alike, the source gives them in different places. A value given as a limit tells only on which side of the number the result lay.

The target of one assay is JAK1 (Homo sapiens (Human), UniProt P23458). The assay is described as follows: JAK1 enzyme activity assay (Thermo Fisher SelectScreen Z-lyte). The assay is classed as biochemical. As to conditions: 1 hour kinase reaction, read-out: JAK1 Inhibition IC50. An outline of the steps: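 Z-lyte FRET assay with 21.2-91.5 ng JAK1 and 2 μM Tyr 06 peptide in 50 mM HEPES pH 7.0 with 10 mM MgCl2, reacted 1 hour before development reagent. Compounds tested in an 11-point dose-response from […] to 0.34 nM. IC50 from 4-parameter logistic fit of emission ratio.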

Another assay has as its target JAK3 (a.a. 781-1124) (Homo sapiens (Human), UniProt P52333). The assay is described as follows: JAK3 enzyme activity assay (SRCtide phosphorylation, Caliper). The assay is classed as biochemical. As to conditions: 2.5 nM JAK3, 1 μM SRCtide, 1 uM ATP, 40 minutes; read-out: JAK3 Inhibition IC50. An outline of the steps:
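2.5 nM JAK3 kinase domain with 1 μM FAM-SRCtide and 1 μM ATP in 20 mM HEPES pH 7.5, 10 mM MgCl2, 2% DMSO, 40 min at room temperature, EDTA stop. Phospho/unphospho peptide separated by mobility shift; 11-point 3-fold series in duplicate, 4-parameter logistic IC50.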

The subject of assay [1] is IL-2 stimulated STAT5 phosphorylation on Tyr694 (JAK1/3). The assay is described as follows: JAK1/3 cellular target modulation: IL-2 stimulated phospho-STAT5 in PBMC. As to conditions: Homo sapiens, PBMC, IL-2 25 ng/ml, 1 hour compound preincubation, read-out: IL2-STAT5 Inhibition IC50. The assay is classed as cell-based. An outline of the steps:
(§1)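 Thawed human PBMC (200,000/well) in complete RPMI/10% FBS preincubated with compound 1 h at 37 °C, then stimulated with IL-2 25 ng/ml for 5 min (pSTAT5 Tyr694) or IFNγ 10 ng/ml for 10 min (pSTAT1 Tyr701). Cells lysed; pSTAT5 by MSD Tyr694/total STAT5a,b assay, pSTAT1 by sandwich ELISA.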

In assay [2] the test system is IFNγ stimulated STAT1 phosphorylation on Tyr701 (JAK1/2). The assay is described as follows: JAK1/2 cellular target modulation: IFNγ stimulated phospho-STAT1 in PBMC. The note with it: IFNγ 10 ng/ml, 1 hour compound preincubation, read-out: Infγ-STAT1 IC50. The assay is classed as cell-based. An outline of the steps: as §1

Sequence of JAK1 (P23458 whole entry): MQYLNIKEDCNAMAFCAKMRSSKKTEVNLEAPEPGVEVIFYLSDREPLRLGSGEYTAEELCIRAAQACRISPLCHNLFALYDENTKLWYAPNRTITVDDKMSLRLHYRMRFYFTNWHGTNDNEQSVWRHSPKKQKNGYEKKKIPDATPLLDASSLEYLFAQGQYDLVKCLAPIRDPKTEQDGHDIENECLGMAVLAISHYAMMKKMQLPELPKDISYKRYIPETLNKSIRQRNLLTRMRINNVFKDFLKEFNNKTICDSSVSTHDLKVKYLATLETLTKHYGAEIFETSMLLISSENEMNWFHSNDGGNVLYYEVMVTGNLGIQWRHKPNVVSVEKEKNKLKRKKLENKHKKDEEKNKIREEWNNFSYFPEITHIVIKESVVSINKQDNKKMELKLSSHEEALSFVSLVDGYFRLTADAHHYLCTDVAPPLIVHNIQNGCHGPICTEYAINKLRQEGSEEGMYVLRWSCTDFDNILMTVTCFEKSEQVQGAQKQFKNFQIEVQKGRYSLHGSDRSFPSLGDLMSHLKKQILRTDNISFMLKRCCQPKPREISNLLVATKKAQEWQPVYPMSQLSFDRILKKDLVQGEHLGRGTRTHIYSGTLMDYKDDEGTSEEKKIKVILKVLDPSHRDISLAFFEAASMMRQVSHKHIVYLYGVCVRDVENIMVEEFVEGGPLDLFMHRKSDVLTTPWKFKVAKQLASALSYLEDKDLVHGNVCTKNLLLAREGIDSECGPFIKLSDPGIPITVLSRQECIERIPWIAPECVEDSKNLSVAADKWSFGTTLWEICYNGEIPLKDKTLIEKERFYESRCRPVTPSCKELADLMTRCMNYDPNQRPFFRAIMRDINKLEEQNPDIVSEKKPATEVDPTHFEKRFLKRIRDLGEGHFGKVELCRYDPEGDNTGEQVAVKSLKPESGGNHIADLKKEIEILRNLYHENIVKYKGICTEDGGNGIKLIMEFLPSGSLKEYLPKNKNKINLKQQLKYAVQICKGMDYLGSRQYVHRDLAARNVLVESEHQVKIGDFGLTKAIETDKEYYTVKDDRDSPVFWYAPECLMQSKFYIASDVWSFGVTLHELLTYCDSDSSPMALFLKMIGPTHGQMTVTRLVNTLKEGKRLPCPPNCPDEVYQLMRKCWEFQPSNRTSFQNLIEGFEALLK
Sequence of JAK3 (a.a. 781-1124) (P52333 781-1124): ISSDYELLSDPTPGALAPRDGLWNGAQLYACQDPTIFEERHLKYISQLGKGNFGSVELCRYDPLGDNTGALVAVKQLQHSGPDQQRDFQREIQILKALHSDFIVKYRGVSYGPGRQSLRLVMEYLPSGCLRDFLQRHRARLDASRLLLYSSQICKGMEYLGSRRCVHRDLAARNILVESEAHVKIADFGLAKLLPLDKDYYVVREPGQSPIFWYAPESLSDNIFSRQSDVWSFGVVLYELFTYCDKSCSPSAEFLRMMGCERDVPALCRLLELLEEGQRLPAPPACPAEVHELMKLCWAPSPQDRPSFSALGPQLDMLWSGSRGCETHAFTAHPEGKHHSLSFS

As to `COC(=O)c1cnc2[nH]ccc2c1N[C@H]1CN(C(=O)CC#N)CC[C@H]1C` [Example 118, methyl 4-(((3R,4R)-1-(2-cyanoacetyl)-4-methylpiperidin-3-yl)amino)-1H-pyrrolo[2,3-b]pyridine-5-carboxylate], the IC50 was ≤ 10 nM on JAK1; 10 to 100 nM on JAK3 (a.a. 781-1124); ≤ 100 nM in assay [1]; 100 to 1000 nM in assay [2] (Homo sapiens, PBMC).

As for `CCOC(=O)c1cnc2[nH]ccc2c1NC1CCC(O)C(CC#N)C1` (centres unmarked) [Example 142, ethyl 4-((3-(cyanomethyl)-4-hydroxycyclohexyl)amino)-1H-pyrrolo[2,3-b]pyridine-5-carboxylate], the IC50 was ≤ 10 nM at JAK1; 10 to 100 nM at JAK3 (a.a. 781-1124); ≤ 100 nM in assay [1]; 100 to 1000 nM in assay [2] (Homo sapiens, PBMC).

`CC(C)OC(=O)c1cnc2[nH]ccc2c1N[C@H]1CN(C(=O)CC#N)CC[C@H]1C` [Example 124, isopropyl 4-(((3R,4R)-1-(2-cyanoacetyl)-4-methylpiperidin-3-yl)amino)-1H-pyrrolo[2,3-b]pyridine-5-carboxylate]: the half-maximal inhibitory concentration (IC50) was 10 to 100 nM on JAK1; 10 to 100 nM on JAK3 (a.a. 781-1124); 100 to 1000 nM in assay [1]; > 1000 nM in assay [2] (Homo sapiens, PBMC).

With `CCOC(=O)c1cnc2[nH]ccc2c1N[C@H]1CC[C@H](OC(=O)CC#N)C1` (single isomer, unassigned) [Example 73, (trans)-ethyl 4-((3-(2-cyanoacetoxy)cyclopentyl)amino)-1H-pyrrolo [2,3-b]pyridine-5-carboxylate], the IC50 is ≤ 10 nM at JAK1, 10 to 100 nM at JAK3 (a.a. 781-1124), ≤ 100 nM in assay [1] and ≤ 100 nM in assay [2] (human PBMC).

For the molecule `CCOC(=O)c1cnc2[nH]ccc2c1N[C@@H]1CCCN(C(=O)C(C)C#N)C1` (stereo partly drawn) [Example 129, ethyl 4-(((3R)-1-(2-cyanopropanoyl)piperidin-3-yl)amino)-1H-pyrrolo[2,3-b]pyridine-5-carboxylate], the IC50 was ≤ 10 nM on JAK1; ≤ 10 nM at JAK3 (a.a. 781-1124); ≤ 100 nM in assay [1]; 100 to 1000 nM in assay [2] (Homo sapiens, PBMC).

As to `CCOC(=O)c1cnc2[nH]ccc2c1N[C@@H]1CCCN(C(=O)CC#N)C1` [Example 117, ethyl (R)-4-((1-(2-cyanoacetyl)piperidin-3-yl)amino)-1H-pyrrolo[2,3-b]pyridine-5-carboxylate], the IC50 on JAK1 was ≤ 10 nM; at JAK3 (a.a. 781-1124), ≤ 10 nM; in assay [1], ≤ 100 nM; in assay [2] (Homo sapiens, PBMC) it was ≤ 100 nM.

With `CCCOC(=O)c1cnc2[nH]ccc2c1N[C@H]1CN(C(=O)CC#N)CC[C@H]1C` [Example 125, propyl 4-(((3R,4R)-1-(2-cyanoacetyl)-4-methylpiperidin-3-yl)amino)-1H-pyrrolo[2,3-b]pyridine-5-carboxylate], the IC50 is ≤ 10 nM at JAK1; ≤ 10 nM at JAK3 (a.a. 781-1124); ≤ 100 nM in assay [1]; 100 to 1000 nM in assay [2] (Homo sapiens, PBMC).

Consider `CCOC(=O)c1cnc2[nH]ccc2c1N[C@H]1CCC[C@@H](CCC#N)C1` (racemic) [Example 133, (rac)-(cis)-ethyl 4-((3-(2-cyanoethyl)cyclohexyl)amino)-1H-pyrrolo[2,3-b]pyridine-5-carboxylate], for which the IC50 was ≤ 10 nM on JAK1; ≤ 10 nM at JAK3 (a.a. 781-1124); ≤ 100 nM in assay [1]; 100 to 1000 nM in assay [2] (Homo sapiens, PBMC).

The values are drawn from patent US10981906B2, “Substituted pyrrolopyridine JAK inhibitors and methods of making and using the same” (ACLARIS THERAPEUTICS, INC., priority 2017, dated 2021).
